Measured values published in patent publication US10751356B2, “Compositions and methods for transient up-regulation of Myc in B-cell lymphomas for enhancing P53 independent apoptotic responses to chemotherapy” (THE CHILDREN'S HOSPITAL OF PHILADELPHIA, priority 2013, dated 2020).

Assays:
Myc = Myc stabilization in B lymphoma cell lines with WT or mutant Myc-Thr58 treated with CHIR-99021 (FIG. 7); assay type: cell-based; conditions: B lymphoma cell lines with WT-Myc-Thr58 or Mut-Myc-Thr58, treated for indicated periods of time
Procedure: FIG. 7: Stabilization of Myc by GSK3-inhibitors requires retention of the Myc-Threonine 58 residue: B lymphoma cell lines with WT-Myc-Thr58 (left panel) or Mut-Myc-Thr58 (right panel) were treated with CHIR-99021 for indicated periods of time.
As discussed above, treatment of Ramos cells [mutant for p53 and wild type for Myc (intact Threonine-58)] with GSK3-inhibitors increases the apoptotic response to drugs used to treat B cell lymphomas and leukemias within the CHOP-chemotherapeutic regimen: vincristine and doxorubicin. In our model, GSK3 inhibitors prevent phosphorylation of Myc at its Thr-58 residue by GSK3, inhibiting Myc degradation and inducing a transient stabilization and increase in the amount of the Myc protein. It has previously been shown that Myc-Thr58 is a hot spot for mutations in Burkitt's Lymphoma (Smith-Sorensen et al, JBC 1996), and when Myc-Thr58 is altered, the effect of transient stabilization induced by GSK3-inhibitors is lost (FIG. 7). Thus, cooperation of GSK3-inhibitors and chemotherapeutic drugs require retention of the Myc-Threonine-58 residue.

Raji cells [1] = test: Immunoblotting of Raji cells treated with TRAIL with or without CHIR-99021 (FIG. 9A); assay type: cell-based, human
Procedure: (§1) Raji cells were treated with indicated concentrations of TRAIL for 16 h in the presence or absence of CHIR-99021. (FIG. 9A) Immunoblotting with antibodies to detect cleavage of PARP and caspase-8, as well as Myc, beta-catenin and loading controls Tutbulin, Actin and GAPDH. (FIG. 9B) Caspase-3/7 activity were measured using the bioluminescent-based Caspase-3/7 Glo Kit (Promega). Fold increase in caspase activities relative to untreated cells, are shown for cells treated with TRAIL alone (light grey bars) or with TRAIL and CHIR-99021 (dark grey bars).
(§2) This finding is relevant since, as mentioned above, Threonine-58 is a hot spot for mutations in Burkitt's lymphoma (Smith-Sorensen et al, JBC 1996).

Raji cells [2] = test: Caspase-3/7 Glo activity in Raji cells treated with TRAIL with or without CHIR-99021 (FIG. 9B); assay type: cell-based, human; conditions: increasing concentrations of TRAIL in presence or absence of CHIR-99021
Procedure: as §1, §2

Ramos cells = test: Yo-Pro flow cytometry of Ramos cells, apoptotic response to TRAIL (FIG. 8); assay type: cell-based, human; conditions: Ramos cells pre-treated with CHIR99021 for 2 hours followed by 5 h of TRAIL
Procedure: Ramos cells where left untreated (top-left panel), treated with TRAIL for 5 h (top-right panel), treated with CHIR99021 alone (bottom-left panel) or pre-treated with CHIR99021 for 2 hours followed by 5 h of TRAIL (bottom-right panel). Percentage of death cells was measured by incorporation of the nuclear staining Yo-Pro. Percentages of living and apoptotic cells are shown in the M4 and M5 gates respectively. […] TRAIL engages the extrinsic apoptotic pathway, activating Caspase-8, and is currently in clinical trials for the treatment of different oncological malignancies (reviewed in Stuckey and Shah, Trends in Mol Med 2013).

Myc/p53ER™ cells = test: Apoptosis of Myc/p53ER B-lymphoma cells (FIGS. 1-3); assay type: cell-based, mice
Excerpt: Because many Myc-driven tumors are defective for p53 activity, we sought to determine whether transient up-regulation of Myc also increases cell death in response to chemotherapeutic drugs in a p53-deficient background. For this purpose, we used B-lymphoma cells isolated from bone marrows of p53ER™ knock-in mice and subsequently transduced with a Myc-expressing retrovirus (2,3). This inducible system allowed us to distinguish between p53-dependent (cells treated with tamoxifen) and independent (no tamoxifen added) cell death. Additionally, instead of modulating Myc levels through miRNA inhibitors, which currently have limited clinical utility, we increased Myc stability with a small molecule inhibitor of GSK3β, which promotes proteosomal degradation of Myc. […] To validate this effect in a more relevant setting, we inhibited GSK3β in various Burkitt's lymphoma cell lines and achieved consistent up-regulation of Myc.

Cc1c[nH]c(-c2cnc(NCCNc3ccc(C#N)cn3)nc2-c2ccc(Cl)cc2Cl)n1 [CHIR-99021, 6-{2-[4-(2,4-dichlorophenyl)-5-(4-methyl-1H-imidazol-2-yl)-pyrimidin-2-ylamino]ethyl-amino}nicotinonitrile]
stabilization of Myc (Myc): induces stabilization of Myc only when the Myc-Thr-58 residue is retained | cleaved caspase 8 and cleaved PARP by immunoblotting (Raji cells [1]; Raji cells pre-treated with CHIR-99021 followed by TRAIL vs TRAIL only): increase in the amount of cleaved caspase 8 and cleaved PARP | apoptotic response to TRAIL (Raji cells [1]; Raji cells, TRAIL for 16 h in presence or absence of CHIR-99021): increases the apoptotic response to TRAIL | levels of beta-catenin (Raji cells [1]; Raji cells, immunoblotting): increased levels of beta-catenin | levels of mutant Myc (Raji cells [1]; Raji cells, immunoblotting): remain constant | cell death with TRAIL and CHIR-99021 (Raji cells [1]; Raji cells, no functional p53 and mutant Myc-thr58): killed Raji cells | caspase 3 activity (Raji cells [2]): higher levels of caspase-3 activity | apoptotic response to TRAIL (percentage of dead cells by Yo-Pro) (Ramos cells): increases the apoptotic response to TRAIL

COc1cccc2c1C(=O)c1c(O)c3c(c(O)c1C2=O)C[C@@](O)(C(=O)CO)C[C@@H]3O[C@H]1C[C@H](N)[C@H](O)[C@H](C)O1 [doxorubicin]
cell killing / apoptosis (Myc/p53ER™ cells; absence of active p53 (no tamoxifen)): cell killing was rather inefficient

CC/C(=C(\c1ccccc1)c1ccc(OCCN(C)C)cc1)c1ccccc1 [tamoxifen]
apoptosis by activation of p53 (Myc/p53ER™ cells; tamoxifen added, without doxorubicin or modulation of Myc): sufficient to induce robust apoptosis
